According to US8987459B2, “Compounds for the treatment of conditions associated with DGAT1 activity” (Novartis AG, priority 2013, dated 2015):
Values after ≈ are worked out from the molar mass of the structure shown. Counter-ions that a name gives are not always drawn. Like-named read-outs stand apart in the source and are kept apart here. Marks after values point to notes of the source that are not given here.

Assays:
[1] = Solubility in buffers, biorelevant media and water
[2] = Oral exposure and bioavailability in rat; format: in vivo; conditions: for dose linearity: suspension
Experimental: (§1) Direct in vivo comparison of 2-((1R,4R)-4-(4-(5-(benzo[d]oxazol-2-ylamino)pyridin-2-yl)phenyl)cyclohexyl)acetic acid meglumine and 2-((1R,4R)-4-(4-(5-(benzo[d]oxazol-2-ylamino)pyridin-2-yl)phenyl)cyclohexyl)acetic acid sodium salt suspensions were performed in rat and mouse. […] From this preclinical data, it was confirmed that 2-((1R,4R)-4-(4-(5-(benzo[d]oxazol-2-ylamino)pyridin-2-yl)phenyl)cyclohexyl)acetic acid meglumine is a better performing salt.

[3] = Hygroscopicity (relative humidity); format: physicochemical; conditions: for Change in crystallinity (PXRD): listed under hygroscopicity
[4] = Oral bioavailability in mouse; format: in vivo; conditions: suspension at 30 mg/kg
Experimental: as §1

[5] = Efficacious dose in preclinical species; format: in vivo
Experimental: (§2) A standard capsule formulation with 2-((1R,4R)-4-(4-(5-(benzo[d]oxazol-2-ylamino)pyridin-2-yl)phenyl)cyclohexyl)acetic acid meglumine is the recommended CSF strategy to support the projected efficacious dose range in human (11-120 mg) based on following observations: • Low efficacious dose of 2-((1R,4R)-4-(4-(5-(benzo[d]oxazol-2-ylamino)pyridin-2-yl)phenyl)cyclohexyl)acetic acid in preclinical species (0.1-0.3 mg/kg) • High exposure multiples in preclinical species (rat and dog) from a suspension formulation of 2-((1R,4R)-4-(4-(5-(benzo[d]oxazol-2-ylamino)pyridin-2-yl)phenyl)cyclohexyl)acetic acid meglumine • Aqueous kinetic solubility of 2-((1R,4R)-4-(4-(5-(benzo[d]oxazol-2-ylamino)pyridin-2-yl)phenyl)cyclohexyl)acetic acid meglumine can be further improved (20-60 fold) from simple physical blend with polymers and/or surfactants • Improvement in exposure and dose linearity from 2-((1R,4R)-4-(4-(5-(benzo[d]oxazol-2-ylamino)pyridin-2-yl)phenyl)cyclohexyl)acetic acid meglumine over the sodium salt

[6] = Intrinsic dissolution rate; format: physicochemical
[7] = Efficacious AUC in dog; format: in vivo; conditions: plasma, 0.3 mg/kg, at 0.3 mpk
Experimental: (§3) With a meglumine salt suspension at 100 mg/kg, about 33% decrease in plasma exposure was observed compared to solid dispersion. […] The solid dispersion formulation has several technical challenges which can be avoided by using a 2-((1R,4R)-4-(4-(5-(benzo[d]oxazol-2-ylamino)pyridin-2-yl)phenyl)cyclohexyl)acetic acid meglumine Form A suspension-based formulation.

[8] = Oral exposure and bioavailability in dog; format: in vivo
Experimental: as §3

[9] = Aqueous kinetic solubility, physical blend with polymers and/or surfactants; format: physicochemical; conditions: simple physical blend with polymers and/or surfactants
Experimental: as §2

[10] = background statement, no medium given

| Compound | Solubility ([1]; FaSSIF V2) [µg/mL] | pH final of solubility sample ([1]; FaSSIF V2) | Solubility ([1]; FeSSIF V2) [µg/mL] | pH final of solubility sample ([1]; FeSSIF V2) | pH final of solubility sample ([1]; SGF pH 2.0) | Solubility ([1]; Water) [µg/mL] | pH final of solubility sample ([1]; Water) | Solubility ([1]; pH 1 (0.1N HCl)) [µg/mL] | pH final of solubility sample ([1]; pH 1 (0.1N HCl)) | Solubility ([1]; pH 4.8 (50 mM Acetate)) [µg/mL] | pH final of solubility sample ([1]; pH 4.8 (50 mM Acetate)) | Solubility ([1]; pH 6.5 (50 mM Phosphate)) [µg/mL] | pH final of solubility sample ([1]; pH 6.5 (50 mM Phosphate)) | dose linearity ([2]; 30 and 100 mg/kg) | Hygroscopicity [%] 0-40% r.h. [3] [%] | Hygroscopicity [%] 0-95% r.h. [3] [%] | Change in crystallinity (PXRD) [3] | Intrinsic Dissolution Rate ([6]; pH 4.5 (50 mM Acetate)) | Intrinsic Dissolution Rate ([6]; pH 6.8 (50 mM Phosphate)) | Solubility ([1]; SGF pH 2.0) [µg/mL] | further results |
| --- | --- | --- | --- | --- | --- | --- | --- | --- | --- | --- | --- | --- | --- | --- | --- | --- | --- | --- | --- | --- | --- |
| O=C([O-])C[C@H]1CC[C@H](c2ccc(-c3ccc(Nc4nc5ccccc5o4)cn3)cc2)CC1.[Na+] [Sodium, 2-((1R,4R)-4-(4-(5-(benzo[d]oxazol-2-ylamino)pyridin-2-yl)phenyl)cyclohexyl) acetate sodium salt] | 7 | (7.47) | 3 | (5.66) | (9.13) | 23 | (9.3) | <0.5 | (1.03) | <0.5 | (5.08) | 0.6 | (8.5) | not dose linear | 13.1 | 16.2 | No |  |  |  | Solubility [mg/ml] ([1]; SGF pH 2.0): 0.062* mg/ml; bioavailability ([2]; suspension at 30 mg/kg): 7.6%; bioavailability ([2]; suspension at 100 mg/kg): 4.6%; bioavailability [4]: 9.6% |
| O=C(O)C[C@H]1CC[C@H](c2ccc(-c3ccc(Nc4nc5ccccc5o4)cn3)cc2)CC1 [Free acid, 2-((1R,4R)-4-(4-(5-(benzo[d]oxazol-2-ylamino)pyridin-2-yl)phenyl)cyclohexyl)acetic acid] |  | (6.34) | 60 (≈ 140 µM) | (5.53) | (2.38) | 10 (≈ 23.4 µM) | (7.63) | <0.5 | (1.59) |  | (4.76) | <0.5 | (6.87) |  | 0.136 | 0.251 | No | 0.013 mg min^−1 cm^−2 | BLQ |  | Solubility ([1]; 50 mM acetate buffer, pH 4.8, aqueous buffer, Solubility [mg/ml], pH 4.8 (50 mM Acetate)): < 0.5 µg/mL; Solubility ([1]; FaSSIF V2, fassif, Solubility [mg/ml], FaSSIF V2): 20 µg/mL (≈ 46.8 µM); Solubility ([1]; SGF, pH 2, simulated gastric fluid, Solubility [mg/ml], SGF pH 2.0): < 0.5 µg/mL; solubility (in words) [1, 10]: low; efficacious dose in preclinical species [5]: 0.1 to 0.3 mg/kg; intrinsic dissolution (in words) [6, 10]: low; AUC [7]: 0.132 µM·h |
| O=C(O)C[C@H]1CC[C@H](c2ccc(-c3ccc(Nc4nc5ccccc5o4)cn3)cc2)CC1 [meglumine salt, meglumine salt of 2-((1R,4R)-4-(4-(5-(benzo[d]oxazol-2-ylamino)pyridin-2-yl)phenyl)cyclohexyl)acetic acid] |  |  |  |  |  |  |  |  |  |  |  |  |  | dose linear |  |  |  |  |  |  | bioavailability ([8]; plasma, po, 30 mg/kg solution dose (sodium material dissolved in 10% HPβCD in purified water or PBS), read-out: Absolute oral bioavailability): 1.5%; decrease in plasma exposure compared to solid dispersion ([8]; suspension at 100 mg/kg): about 33%; exposure over the efficacious AUC ([8]; suspension at 100 mg/kg): ~150 ×; dose linearity ([2]; 300 mpk): non-linear; bioavailability ([2]; in vivo, oral, 300 mg/kg, suspension at 300 mpk, read-out: bioavailability): 1.9%; bioavailability ([2]; in vivo, oral, suspension at 30 mg/kg, read-out: bioavailability): 3.1%; bioavailability ([2]; in vivo, oral, suspension at 100 mg/kg, read-out: bioavailability): 3.8%; improvement of aqueous kinetic solubility [9]: 20-60 fold; bioavailability ([4]; in vivo, oral, read-out: bioavailability): 17.3% |
| O=C(O)C[C@H]1CC[C@H](c2ccc(-c3ccc(Nc4nc5ccccc5o4)cn3)cc2)CC1 [Meglumine Form A, Meglumine salt of 2-((1R,4R)-4-(4-(5-(benzo[d]oxazol-2-ylamino)pyridin-2-yl)phenyl)cyclohexyl)acetic acid] | 10 | (6.86) | 1 | (6.26) | (2.37) | 70 | (10.4) | 150 | (2.79) | <0.5 | (4.88) | 40 | (7.27) |  | 0.162 | 0.588 | No | BLQ | BLQ | <0.5 |  |
| C[N+](C)(C)CCO.O=C(O)C[C@H]1CC[C@H](c2ccc(-c3ccc(Nc4nc5ccccc5o4)cn3)cc2)CC1.O=C([O-])C[C@H]1CC[C@H](c2ccc(-c3ccc(Nc4nc5ccccc5o4)cn3)cc2)CC1 [Hemi-choline, 2-((1R,4R)-4-(4-(5-(benzo[d]oxazol-2-ylamino)pyridin-2-yl)phenyl)cyclohexyl) acetate Hemi-choline salt] |  |  |  |  |  |  |  |  |  |  |  |  |  |  | 1.44 | 15.95 | No | BLQ |  |  | Solubility (pH 1): 140 µg/mL; pH final of solubility sample (pH 1): (1.06); Solubility (pH 2): 95 µg/mL; pH final of solubility sample (pH 2): (1.05); Solubility (pH 4.8): 15 µg/mL; pH final of solubility sample (pH 4.8): (4.76); Solubility (pH 6.5): 30 µg/mL; pH final of solubility sample (pH 6.5): (7.15) |
| O=C([O-])C[C@H]1CC[C@H](c2ccc(-c3ccc(Nc4nc5ccccc5o4)cn3)cc2)CC1.[K+] [Potassium, 2-((1R,4R)-4-(4-(5-(benzo[d]oxazol-2-ylamino)pyridin-2-yl)phenyl)cyclohexyl) acetate Potassium salt] | 95 | (8.32) |  |  | (3.73) | 1050 | (10.3) | 50 | (3.89) | <0.5 | (4.90) | <0.5 | (7.29) |  | 4.52 | 21.77 | No |  |  | 3 |  |
